From BindingDB's records for patent US20250296922 (Shanghai Wennai Therapeutics Co, 2025) come the findings set out here.

What all share (test): Human Liver Microsomal CYP Inhibition Test
One data set addresses T1, Cytochrome P450 1A2 (Homo sapiens, UniProt P05177).
T1 sequence (P05177 whole entry): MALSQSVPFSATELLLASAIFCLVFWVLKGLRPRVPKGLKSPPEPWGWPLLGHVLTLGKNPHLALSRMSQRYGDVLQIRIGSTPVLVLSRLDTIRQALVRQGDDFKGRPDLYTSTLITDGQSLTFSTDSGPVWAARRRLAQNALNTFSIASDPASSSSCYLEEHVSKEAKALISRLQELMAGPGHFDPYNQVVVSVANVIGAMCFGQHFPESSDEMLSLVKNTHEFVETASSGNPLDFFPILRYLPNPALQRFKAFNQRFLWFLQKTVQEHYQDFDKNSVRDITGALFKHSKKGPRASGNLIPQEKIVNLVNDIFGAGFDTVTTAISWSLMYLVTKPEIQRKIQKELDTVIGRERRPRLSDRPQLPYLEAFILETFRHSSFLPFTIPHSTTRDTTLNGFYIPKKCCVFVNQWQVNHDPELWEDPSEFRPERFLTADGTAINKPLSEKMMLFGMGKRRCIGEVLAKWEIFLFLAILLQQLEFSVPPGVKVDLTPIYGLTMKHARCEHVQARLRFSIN
The method, then:
(§1) 3.5.1 the working solution preparation of the compound to be tested and the positive control (100×);3.5.2 Taking the liver microsomes from the −80° C. cryogenic freezer and melting on ice;3.5.3 Adding 20 μL of substrate solution to the appropriate wells and 20 μL of potassium phosphate buffer to the blank wells;3.5.4 Adding 2 μL of different concentrations of target compounds (final concentrations from 0.05 μM to 50 μM, 7 concentrations in total) or standard inhibitors to each well, with 2 μL of methanol solution in the non-inhibitor and blank wells;3.5.5 Adding 1.012 mL of liver microsomes to 78.988 mL of potassium phosphate buffer, then adding 158 μL of liver microsomes solution to all wells; preheating the well plate for 10 minutes in a 37° C. water bath;3.5.6 Weighing 129.1 mg NADPH (purchased from SyncoZymes Co. Ltd.) and adding to 15.0 mL of 33 Mm MgCl2 solution to give a 10 mM concentration, adding 20 μL to each well;3.5.7 Mixing and incubating the well plate in a 37° C. water bath for 10 minutes, then adding 400 μL of cold termination solution at the appropriate time point;3.5.8 Centrifuging the sample at 4000 rpm for 20 minutes to precipitate the protein. Transferring 200 μL of supernatant to 100 μL of HPLC water and shaking for 10 minutes. The samples were analyzed by LC/MS/MS.

A further data set addresses Cytochrome P450 2C19 (Homo sapiens, UniProt P33261). The method, then:
as §1

Another data set has as its target Cytochrome P450 2C9 (Homo sapiens, UniProt P11712). On the procedure:
as §1

A further data set addresses Cytochrome P450 2D6 (Homo sapiens, UniProt P10635). The method, then:
as §1

Bounds are passed on as bounds.

Sequence of Cytochrome P450 2C19 (P33261 whole entry): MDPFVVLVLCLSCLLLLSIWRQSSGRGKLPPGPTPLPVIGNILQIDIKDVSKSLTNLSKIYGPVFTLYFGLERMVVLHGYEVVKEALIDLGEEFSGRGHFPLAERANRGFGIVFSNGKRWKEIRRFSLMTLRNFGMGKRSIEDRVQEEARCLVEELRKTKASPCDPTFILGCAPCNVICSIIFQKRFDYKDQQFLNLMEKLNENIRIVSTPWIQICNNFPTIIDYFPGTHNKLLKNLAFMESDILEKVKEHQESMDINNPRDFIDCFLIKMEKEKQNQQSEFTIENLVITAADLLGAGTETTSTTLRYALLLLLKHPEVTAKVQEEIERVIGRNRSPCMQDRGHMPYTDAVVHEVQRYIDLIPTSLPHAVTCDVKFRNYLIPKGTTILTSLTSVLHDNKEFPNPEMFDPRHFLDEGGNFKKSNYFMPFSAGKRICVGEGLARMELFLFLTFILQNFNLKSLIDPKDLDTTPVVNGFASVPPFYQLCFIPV
Sequence of Cytochrome P450 2C9 (P11712 whole entry): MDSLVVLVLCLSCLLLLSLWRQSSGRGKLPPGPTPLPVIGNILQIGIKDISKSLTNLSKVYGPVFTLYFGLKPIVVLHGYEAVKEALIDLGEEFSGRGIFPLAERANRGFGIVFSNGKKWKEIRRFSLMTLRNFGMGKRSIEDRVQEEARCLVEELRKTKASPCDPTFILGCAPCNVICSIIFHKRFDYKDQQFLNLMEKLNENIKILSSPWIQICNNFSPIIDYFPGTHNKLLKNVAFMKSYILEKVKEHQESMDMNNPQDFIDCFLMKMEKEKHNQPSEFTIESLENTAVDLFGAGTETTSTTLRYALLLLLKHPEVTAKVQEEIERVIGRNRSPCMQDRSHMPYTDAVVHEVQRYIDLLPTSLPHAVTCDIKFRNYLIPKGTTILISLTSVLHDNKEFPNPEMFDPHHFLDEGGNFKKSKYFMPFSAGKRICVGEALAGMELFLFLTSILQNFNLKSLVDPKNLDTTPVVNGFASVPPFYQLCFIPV
Sequence of Cytochrome P450 2D6 (P10635 whole entry): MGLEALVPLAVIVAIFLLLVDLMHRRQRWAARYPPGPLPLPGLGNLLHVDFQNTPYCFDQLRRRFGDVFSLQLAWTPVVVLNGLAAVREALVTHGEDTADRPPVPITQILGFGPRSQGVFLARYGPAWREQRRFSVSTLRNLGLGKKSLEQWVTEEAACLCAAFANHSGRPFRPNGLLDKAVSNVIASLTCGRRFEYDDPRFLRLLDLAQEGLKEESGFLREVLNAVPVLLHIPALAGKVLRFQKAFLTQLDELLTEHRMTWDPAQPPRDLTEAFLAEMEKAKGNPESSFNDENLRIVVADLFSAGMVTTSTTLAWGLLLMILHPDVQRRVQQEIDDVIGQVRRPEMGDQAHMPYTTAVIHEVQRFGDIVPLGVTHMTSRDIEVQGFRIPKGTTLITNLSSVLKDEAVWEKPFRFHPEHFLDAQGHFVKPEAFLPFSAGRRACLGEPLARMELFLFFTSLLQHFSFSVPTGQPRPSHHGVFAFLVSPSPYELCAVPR

For `COc1c([C@H]2[C@H](C(=O)Nc3ccc[n+]([O-])c3)C[C@@](C)(C(F)(F)F)[C@H]2C)ccc(F)c1F` [US20250296922, Compound 7], the IC50 is more than 50 µM at Cytochrome P450 1A2, 2.13 µM against Cytochrome P450 2C19, more than 50 µM against Cytochrome P450 2C9 and more than 50 µM against Cytochrome P450 2D6.
